# In patent US20250242086A1, “THERAPEUTIC BIOMATERIAL THAT ATTENUATES THE FOREIGN BODY RESPONSE” (The Regents of the University of Colorado, a body corporate, priority 2022, published 2025):
# What was measured:
# [1] = tested on: J774A.1 macrophage cell line; experiment: Caspase-Glo 8 caspase activity assay in J774A.1 macrophages with FasL with or without small molecule inhibitor; format: cell-based
# Experimental: FIG. 11 provides two illustrations depicting in vitro assessment of cell behavior. (A) In Vitro Experimental Protocol: J774A.1 macrophage cell line was incubated overnight at 20,000 cells/well and treated with lipopolysaccharide (LPS) for 4 hours or 3days. Exogenous FasL was then added to initiate the extrinsic apoptotic pathway for 6 hours before caspase activity (Caspase-Glo3/7) and metabolic activity (alamarBlue) assays were performed to study the differences in cell behavior after exposure to each stimulant. (B) In Vitro Experimental Protocol for Small Molecule Testing. J774A. 1 macrophage cell line was incubated overnight at 20,000 cells/well and cultured […] for 3 days. Exogenous FasL was then added to initiate the extrinsic apoptotic pathway with or without a small molecule inhibitor for 6 hours before a caspase activity (Caspase-Glo8) assay was performed to study the differences in cell behavior after exposure. […] J774A.1 macrophage cell line was incubated overnight at 20,000 cells/well and cultured in complete media for 3 days. Exogenous FasL was then added to initiate the extrinsic apoptotic pathway with or without a small molecule inhibitor for 6 hours before a caspase activity (Caspase-Glo 8) assay was performed to study the differences in cell behavior after exposure. Lastly, tests were performed utilizing a small molecule inhibitor (YM155) of CFLIP. […]
# [2] = tested on: cFLIP in cancer cells; details: cancer cells versus non-cancerous cells; cited from earlier work
# [3] = tested on: macrophages; details: in vitro; cited from earlier work
structure (smiles),measurement,setting,value
COCCn1c2c([n+](Cc3cnccn3)c1C)C(=O)c1ccccc1C2=O [YM155],fold change in caspase 8 activity relative to untreated control,"[1]; 100 ng/mL small molecule, FasL 6 hours, J774A.1 cells cultured 3 days, N=3",about 23 fold
same,effect on caspase 8 activity (qualitative),"[1]; small molecule exposure, J774A.1 cells, FasL",increased caspase 8 activity
same,cFLIP inhibition in cancer cells and induction of their death,[2],inhibited cFLIP in cancer cells and induced their death without affecting non-cancerous cells
same,effect on anti-apoptotic programming in macrophages,[3],reversed anti-apoptotic programming in macrophages in vitro
